One data set has as its target T1, DYRK1A (Homo sapiens, UniProt Q13627).
T1 construct: kinase domain of DYRK1A (126–490) was cloned into pET24a with C-terminal His-tag; His-tag (C); made in house; host or cells: E. coli BL21 (DE3) RIL
The experiment in a line: Cook activity assay (ATP regenerative NADH consuming DYRK1A activity assay). Format: biochemical.

Data set [1] has as its system INS-1E and MIN6 cells. Briefly: Ki67 proliferation analysis. Format: cell-based, rat, mouse.
Data set [2] relates to INS-1E and MIN6 cells. The experiment in a line: GSIS and insulin, C-peptide, glucagon staining (flow cytometry, confocal). Format: cell-based, rat, mouse. Also on record: key to insulin+ / glucagon+ / C-peptide+: ↑: moderate; ↑↑: most potent. On the procedure: Cells were cultured in a low glucose medium (5.5 mM) for 24 h. After this medium was changed to lower glucose medium (2 mM) for 2 h and then for high glucose medium (25 mM) for 30 min, media were harvested and/or cells were used for further analysis.
The presence of insulin, glucagon, C-peptide, Ki67, and DYRK1A was assessed in MIN6 and INS-1E pancreatic cell lines. Before imaging, cells were seeded onto slides at a density of 1 × 10^5 cells and maintained at 37 °C in 95% atmospheric air and 5% CO2 in a humidified atmosphere for 24 h. After washing with fresh medium, cells were incubated with 5 µM inhibitor solution for 24 h. After this time, the solution was replaced with a culture medium for another 48 h. The cells were fixed. Then after washing and permeabilization, they were incubated with specific antibodies diluted in PBS. Next, the cells were incubated for 10 min with Hoechst33342 (Sigma-Aldrich). After incubation, at 37 °C, in the dark, the cells were washed twice with HBSS (Gibco), the slide was transferred to a microscope table, and the cells were visualized under a Zeiss LSM 880 confocal microscope (Carl Zeiss, Jena, Germany) with a 63× immersion objective. Images were analyzed by Zeiss ZEN Software.
The presence of insulin, glucagon, C-peptide, Ki67 and DYRK1A was assessed in MIN6 and INS-1E pancreatic cell lines. Before analysis, cells were seeded onto slides at a density of 1 × 10^5 cells and maintained at 37 °C in 95% atmospheric air and 5% CO2 in a humidified atmosphere for 24 h. After washing with fresh medium, cells were incubated with 5 µM inhibitor solution for 24 h. After this time, the solution was replaced with a culture medium for another 48 h. The cells were then detached from the plate using trypsin. The cells were fixed. Then after washing and permeabilization, they were incubated with specific antibodies diluted in PBS. Cells were analyzed with BDAccuri flow cytometer and calculated using FlowJo software (Ashland, Oregon-based FlowJo LLC, a subsidiary of Becton Dickinson).
On the technique in general: Flow cytometry measures light scatter and fluorescence of single cells or particles in a stream.

The next data set concerns isolated mouse islets. The experiment in a line: Insulin secretion assay in isolated mouse islets (ELISA, immunostaining). Format: cell-based. Also on record: key to insulin secretion (ELISA): ↑: moderate; ↑↑: most potent. On the procedure: The Insulin ELISA (Ultra Sensitive) was used to quantify insulin levels in control and treated organoids and isolated islets from the mouse pancreas (Crystal Chem, Downers Grove, IL, USA). Islets were homogenized in lysis buffer. Obtained buffer lysates and medium samples (after GSIS) were analyzed for total protein level and subsequently processed following the manufacturer’s protocol.
Mice (male, initially 12 weeks old) were sacrificed by cervical vertebral dislocation. Before starting the incision, their bodies were sprayed with 70% EtOH. A hemostatic clamp was placed on both sides of the small intestine, leaving a small pocket to absorb the collagenase solution into the intestine. Next, 3 mL of cold collagenase solution was introduced into the pancreas through the bile duct. The pancreas was removed from the body and placed in a falcon tube containing 2 mL of collagenase solution. The tube was placed in a water bath at 37 °C. It was incubated for 13 min. At the end of this time, the falcon was shaken vigorously. The collagenase was inactivated with FBS. The sample was centrifuged for 30 s (300× g). This step was repeated 3 times. HBSS was then added to the sample and centrifuged two more times at the same speed as before. After the last centrifugation, HBSS was removed and Percoll (1.045 g/mL) (Sigma-Aldrich) was added. The Percoll solution was left to sediment for 5 min. After this time, the islets were collected from the bottom of the falcon. The step was repeated 3 times. Finally, islets were cultured in RPMI-1640 (Pan Biotech) supplemented with 2 mM L-glutamine (Gibco), 10% fetal bovine serum (FBS) and 1% penicillin/streptomycin and the culture medium was changed daily.
The presence of insulin, C-peptide, glucagon, Pdx-1 and Nkx6.1 was assessed in isolated mouse islets. Islets were fixed in PFA (3.8%) for 30 min, washed with PBS and 0.15% Triton X-100 was added for 1.5 h, then washed again with PBS and samples were transferred to 1% BSA + 0.05% Triton X-100 solution for 3 h. After this time, islets were incubated with primary antibody for 12 h at 4 °C. The secondary antibody was then added for 3 h. Next, the islets were incubated for 10 min with Hoechst33342. After incubation, at 37 °C, in the dark, the samples were washed twice with HBSS, the slide was transferred to a microscope table and the cells were visualized under a Zeiss LSM 880 confocal microscope (Carl Zeiss, Jena, Germany) with a 63× immersion objective. Images were analyzed by Zeiss ZEN Software.

The test system of data set [3] is INS-1E and MIN6 cells. The experiment in a line: MTT cytotoxicity and cell survival assay, β-cell lines.
The mark [4] stands for this setting: combination with TGF-β inhibitors.
[5] abbreviates: high glucose, day 4 after treatment.

These results are taken from paper PMC8467532, “DYRK1A Kinase Inhibitors Promote β-Cell Survival and Insulin Homeostasis” (Cells, 2021).

Broadly, the Ki is the equilibrium dissociation constant of an inhibitor or competing ligand from its target.

At DYRK1A (Cook assay, DYRK1A 0.5 µM, ATP 128 µM, DYRKtide 1 mM), `O=c1ccc2cnc3ccc(-c4cn[nH]c4)cc3c2n1-c1ccc(F)cc1C(F)(F)F` [AC27, 1-(4-fluoro-2-(trifluoromethyl)phenyl)-9-(1H-pyrazol-4-yl)benzo[h][1, 6]naphthyridin-2-one] registered an inhibition constant (Ki) of 200 ± 300 nM. In addition, on DYRK1A (Cook assay, phosphorylation of substrate peptide), the inhibition constant Ki was less than 200 nM. Besides, at DYRK1A (Table 2, Biochemistry, unit inferred), the Ki was determined as 170 ± 260 nM. Also, in the data set with INS-1E and MIN6 cells [1] (5 μM, vs untreated cells), the “induction of β-cell proliferation (Ki67 labeling of insulin-labeled cells)” value is “most potent in inducing β-cell proliferation”. Moreover, in the data set on INS-1E and MIN6 cells [1] (combined with RepSox or LY364947), the “Ki67 labeling index in β-cells” value is reported as “significant increase in the Ki67 labeling index”. Moreover, the “Ki67 labeling index, difference to that without TGF-β inhibition” value with INS-1E and MIN6 cells [1] (combined with TGF-β inhibitors) is on record as “about 5%”. In the data set on INS-1E and MIN6 cells [1] (combined with TGF-β inhibitors (RepSox, LY364947), 5 μM each), the “Ki67 labeling index (proliferation rate)” value is given as more than 12%. Moreover, the glucagon level result with INS-1E and MIN6 cells [2] (5 μM, compound alone) was “balanced (lower) glucagon level”. In addition, the insulin/C-peptide secretion entry in the data set with INS-1E and MIN6 cells [2] (GSIS, compound alone) is “higher insulin/C-peptide secretion”. In the data set with INS-1E and MIN6 cells [2] (Table 2, Cell lines), the “C-peptide+” value is recorded as “↑↑”, the “glucagon+” value is recorded as “↑” and the “insulin+” value is reported as “↑↑”. The “time the effect remained stable” value in the data set with INS-1E and MIN6 cells [2] (after inhibitor action) was “up to 12 days”. Moreover, in the data set with INS-1E and MIN6 cells [2] (setting [4]), the “glucagon level after GSIS” value is “reduced” and the insulin/C-peptide secretion entry is “markedly improved”. Also, in the data set with INS-1E and MIN6 cells [2] (discussion statement), the “increase in insulin expression” value is “more than 60%”. The “insulin secretion (ELISA)” value with isolated mouse islets (Table 2, Isolated islets) is “↑↑”. The “insulin secretion compared with untreated islets” value in the data set with isolated mouse islets (after GSIS) is “significantly higher”. For the same compound, in the data set with isolated mouse islets (setting [5]), the “increase in insulin secretion compared with control islets” value is given as 60% and the “insulin secretion, higher than with harmine” value is on record as “ca. 15%”. Besides, in the data set with isolated mouse islets (secretion normalized for total insulin content), the “percentage of total insulin released” value is recorded as “higher”. In addition, the “concentration without significant toxic effects” value with INS-1E and MIN6 cells [3] (MTT, 24 h) is given as “up to 5 μM”. The toxicity entry with INS-1E and MIN6 cells [3] (Table 2, Cell lines) was “no”.
